Experiment: Solubility of amlodipine hemifumarate in water and organic solvents (descriptive statement)
Assay type: physicochemical
Details: in water and most commonly used organic solvents

Substance: Amlodipine Hemifumarate
- solubility: insoluble or only sparingly soluble
